In ChEMBL document CHEMBL5303766, “Data for DCP probe FHT-2344” (2022):
Active and inactive are the calls of the source. The calls are words filed in the database; no cut-off is given here.

Columns and labels:
[1] = molecular target: T1, Serine/threonine-protein kinase 17B (Homo sapiens) (UniProt O94768); test: STK17B SGC Tm panel (DSF); settings: for ΔTm: Compound concentration 10.0 uM
T1 sequence (whole entry): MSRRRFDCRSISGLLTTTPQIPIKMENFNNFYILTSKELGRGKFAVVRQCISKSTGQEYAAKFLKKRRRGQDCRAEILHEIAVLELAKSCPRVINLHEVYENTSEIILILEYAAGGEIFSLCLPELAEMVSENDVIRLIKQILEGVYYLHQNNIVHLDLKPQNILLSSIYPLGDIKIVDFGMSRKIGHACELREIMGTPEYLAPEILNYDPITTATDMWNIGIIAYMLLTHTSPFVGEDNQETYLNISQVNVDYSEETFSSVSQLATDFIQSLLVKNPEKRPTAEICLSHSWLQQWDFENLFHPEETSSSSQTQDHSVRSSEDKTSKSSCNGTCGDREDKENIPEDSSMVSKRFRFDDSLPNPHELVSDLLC

[2] = molecular target: MAP kinase-activated protein kinase 2 (Homo sapiens) (UniProt P49137); test: MAPKAPK2 SGC Tm panel (DSF); settings: for ΔTm: Compound concentration 10.0 uM
[3] = molecular target: D(2) dopamine receptor (Homo sapiens) (UniProt P14416); settings: Compound concentration 10.0 uM
[4] = molecular target: Ribosomal protein S6 kinase alpha-5 (Homo sapiens) (UniProt O75582); test: RPS6KA5 SGC Tm panel (DSF); settings: for ΔTm: Compound concentration 10.0 uM
[5] = molecular target: Kappa-type opioid receptor (Homo sapiens) (UniProt P41145); settings: Compound concentration 10.0 uM
[6] = molecular target: Serine/threonine-protein kinase pim-1 (Homo sapiens) (UniProt P11309); test: PIM1 SGC Tm panel (DSF); settings: for ΔTm: Compound concentration 10.0 uM
[7] = molecular target: AP2-associated protein kinase 1 (Homo sapiens) (UniProt Q2M2I8); test: AAK1 SGC Tm panel (DSF); settings: for ΔTm: Compound concentration 10.0 uM
[8] = molecular target: Glycogen synthase kinase-3 beta (Homo sapiens) (UniProt P49841); test: GSK3B SGC Tm panel (DSF); settings: for ΔTm: Compound concentration 10.0 uM
[9] = molecular target: Transcription initiation factor TFIID subunit 1 (Homo sapiens) (UniProt P21675); test: TAF1 SGC Tm panel (DSF); settings: for ΔTm: Compound concentration 10.0 uM
[10] = molecular target: 5-hydroxytryptamine receptor 1A (Homo sapiens) (UniProt P08908); settings: Compound concentration 10.0 uM
[11] = molecular target: Muscarinic acetylcholine receptor M3 (Homo sapiens) (UniProt P20309); settings: Compound concentration 10.0 uM
[12] = molecular target: Histamine H1 receptor (Homo sapiens) (UniProt P35367); settings: Compound concentration 10.0 uM
[13] = molecular target: T2, Serine/threonine-protein kinase 4 (Homo sapiens) (UniProt Q13043); test: STK4 SGC Tm panel (DSF); settings: for ΔTm: Compound concentration 10.0 uM
T2 sequence (whole entry): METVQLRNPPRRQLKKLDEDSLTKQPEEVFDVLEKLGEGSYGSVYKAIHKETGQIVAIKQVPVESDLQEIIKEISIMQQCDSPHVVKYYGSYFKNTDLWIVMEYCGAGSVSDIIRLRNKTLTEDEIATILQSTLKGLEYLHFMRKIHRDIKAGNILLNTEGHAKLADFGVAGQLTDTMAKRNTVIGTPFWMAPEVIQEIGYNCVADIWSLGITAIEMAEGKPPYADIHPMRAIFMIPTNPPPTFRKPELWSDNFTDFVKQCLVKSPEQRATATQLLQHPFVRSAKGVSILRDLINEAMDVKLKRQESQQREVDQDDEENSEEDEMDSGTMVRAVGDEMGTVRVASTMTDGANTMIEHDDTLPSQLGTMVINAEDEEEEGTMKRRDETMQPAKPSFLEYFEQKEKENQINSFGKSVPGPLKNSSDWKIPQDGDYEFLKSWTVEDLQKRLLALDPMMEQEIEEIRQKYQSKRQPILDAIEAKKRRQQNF

[14] = molecular target: Membrane-associated tyrosine- and threonine-specific cdc2-inhibitory kinase (Homo sapiens) (UniProt Q99640); test: PKMYT1 SGC Tm panel (DSF); settings: Compound concentration 10.0 uM
[15] = molecular target: Muscarinic acetylcholine receptor M2 (Homo sapiens) (UniProt P08172); settings: Compound concentration 10.0 uM
[16] = molecular target: SWI/SNF-related matrix-associated actin-dependent regulator of chromatin subfamily A member 4 (Homo sapiens, UniProt P51532); test: Luciferase reporter assay: SMARCA4 transcriptional activity in a SMARCA2-mutant cell line; type: functional
[17] = molecular target: G protein-coupled receptor kinase 5 (Homo sapiens) (UniProt P34947); test: GPRK5 SGC Tm panel (DSF); settings: for ΔTm: Compound concentration 10.0 uM
[18] = molecular target: Mu-type opioid receptor (Homo sapiens) (UniProt P35372); settings: Compound concentration 10.0 uM
[19] = molecular target: Serine/threonine-protein kinase PAK 1 (Homo sapiens) (UniProt Q13153); test: PAK1 SGC Tm panel (DSF); settings: for ΔTm: Compound concentration 10.0 uM
[20] = molecular target: 5-hydroxytryptamine receptor 2A (Homo sapiens) (UniProt P28223); settings: Compound concentration 10.0 uM
[21] = molecular target: T3, Dual specificity mitogen-activated protein kinase kinase 7 (Homo sapiens) (UniProt O14733); test: MAP2K7 SGC Tm panel (DSF); settings: for ΔTm: Compound concentration 10.0 uM
T3 sequence (whole entry): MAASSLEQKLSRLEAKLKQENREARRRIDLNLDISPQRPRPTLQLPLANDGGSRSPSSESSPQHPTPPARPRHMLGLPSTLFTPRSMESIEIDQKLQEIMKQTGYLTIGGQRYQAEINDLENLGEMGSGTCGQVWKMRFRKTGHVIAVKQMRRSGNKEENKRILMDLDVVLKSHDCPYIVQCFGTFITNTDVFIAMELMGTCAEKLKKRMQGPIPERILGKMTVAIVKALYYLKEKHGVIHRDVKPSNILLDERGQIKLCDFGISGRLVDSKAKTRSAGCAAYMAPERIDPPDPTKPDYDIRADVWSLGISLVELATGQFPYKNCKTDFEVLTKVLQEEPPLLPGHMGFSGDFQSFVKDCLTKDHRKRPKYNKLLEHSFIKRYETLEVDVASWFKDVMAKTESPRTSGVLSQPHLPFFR

MAP kinase-activated protein kinase 2 (Homo sapiens), sequence (P49137 whole entry, looked up): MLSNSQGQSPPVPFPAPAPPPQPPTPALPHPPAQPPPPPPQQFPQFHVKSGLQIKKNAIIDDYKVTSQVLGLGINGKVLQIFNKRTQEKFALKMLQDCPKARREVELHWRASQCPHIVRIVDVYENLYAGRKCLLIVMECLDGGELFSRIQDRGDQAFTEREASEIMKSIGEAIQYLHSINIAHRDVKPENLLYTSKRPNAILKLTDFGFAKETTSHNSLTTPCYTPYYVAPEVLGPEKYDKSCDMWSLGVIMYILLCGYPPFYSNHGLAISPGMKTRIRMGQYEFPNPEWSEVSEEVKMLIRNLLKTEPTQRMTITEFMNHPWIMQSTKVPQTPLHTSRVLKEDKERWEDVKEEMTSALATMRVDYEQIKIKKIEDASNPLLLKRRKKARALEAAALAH
Serine/threonine-protein kinase PAK 1 (Homo sapiens), sequence (Q13153 whole entry): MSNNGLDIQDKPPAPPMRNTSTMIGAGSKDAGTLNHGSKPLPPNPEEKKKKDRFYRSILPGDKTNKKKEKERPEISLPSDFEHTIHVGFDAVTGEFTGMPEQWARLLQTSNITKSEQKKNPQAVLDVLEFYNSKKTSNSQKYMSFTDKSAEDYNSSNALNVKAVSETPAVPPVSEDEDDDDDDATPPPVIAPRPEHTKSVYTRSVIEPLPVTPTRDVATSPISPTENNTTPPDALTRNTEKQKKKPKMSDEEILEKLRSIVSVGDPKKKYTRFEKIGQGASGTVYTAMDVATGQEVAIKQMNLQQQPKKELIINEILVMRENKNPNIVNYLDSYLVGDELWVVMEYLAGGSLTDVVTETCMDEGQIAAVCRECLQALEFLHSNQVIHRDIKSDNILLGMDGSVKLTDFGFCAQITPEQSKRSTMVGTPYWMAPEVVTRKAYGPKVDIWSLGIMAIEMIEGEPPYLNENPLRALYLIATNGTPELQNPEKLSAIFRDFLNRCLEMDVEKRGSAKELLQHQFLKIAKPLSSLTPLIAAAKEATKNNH
G protein-coupled receptor kinase 5 (Homo sapiens), sequence (P34947 whole entry, looked up): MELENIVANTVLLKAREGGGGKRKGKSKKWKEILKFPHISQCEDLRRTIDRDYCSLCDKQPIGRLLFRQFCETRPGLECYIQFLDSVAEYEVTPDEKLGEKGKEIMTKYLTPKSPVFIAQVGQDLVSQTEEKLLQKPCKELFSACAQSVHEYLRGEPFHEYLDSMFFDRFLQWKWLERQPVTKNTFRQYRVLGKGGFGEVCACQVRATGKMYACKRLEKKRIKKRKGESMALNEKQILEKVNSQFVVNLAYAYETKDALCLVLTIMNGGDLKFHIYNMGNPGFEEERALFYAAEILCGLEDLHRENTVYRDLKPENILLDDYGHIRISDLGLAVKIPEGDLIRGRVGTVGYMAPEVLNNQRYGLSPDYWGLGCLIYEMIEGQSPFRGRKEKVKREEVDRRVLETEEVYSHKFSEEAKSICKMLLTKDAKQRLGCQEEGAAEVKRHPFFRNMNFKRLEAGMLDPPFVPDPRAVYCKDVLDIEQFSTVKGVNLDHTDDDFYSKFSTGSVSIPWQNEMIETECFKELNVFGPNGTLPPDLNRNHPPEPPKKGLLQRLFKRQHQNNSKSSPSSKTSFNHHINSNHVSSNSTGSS
Glycogen synthase kinase-3 beta (Homo sapiens), sequence (P49841 whole entry, looked up): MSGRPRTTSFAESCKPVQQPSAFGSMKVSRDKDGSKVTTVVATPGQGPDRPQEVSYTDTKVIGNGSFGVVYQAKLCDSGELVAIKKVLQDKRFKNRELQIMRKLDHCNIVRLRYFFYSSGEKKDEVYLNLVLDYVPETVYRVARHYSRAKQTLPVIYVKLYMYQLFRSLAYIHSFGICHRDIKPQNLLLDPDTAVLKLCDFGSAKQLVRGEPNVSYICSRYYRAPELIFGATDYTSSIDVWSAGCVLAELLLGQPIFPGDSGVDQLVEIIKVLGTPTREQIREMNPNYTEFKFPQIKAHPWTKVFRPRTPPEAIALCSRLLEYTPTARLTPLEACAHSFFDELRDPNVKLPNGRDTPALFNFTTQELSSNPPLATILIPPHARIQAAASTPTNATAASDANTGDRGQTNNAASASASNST
Transcription initiation factor TFIID subunit 1 (Homo sapiens), sequence (P21675 whole entry): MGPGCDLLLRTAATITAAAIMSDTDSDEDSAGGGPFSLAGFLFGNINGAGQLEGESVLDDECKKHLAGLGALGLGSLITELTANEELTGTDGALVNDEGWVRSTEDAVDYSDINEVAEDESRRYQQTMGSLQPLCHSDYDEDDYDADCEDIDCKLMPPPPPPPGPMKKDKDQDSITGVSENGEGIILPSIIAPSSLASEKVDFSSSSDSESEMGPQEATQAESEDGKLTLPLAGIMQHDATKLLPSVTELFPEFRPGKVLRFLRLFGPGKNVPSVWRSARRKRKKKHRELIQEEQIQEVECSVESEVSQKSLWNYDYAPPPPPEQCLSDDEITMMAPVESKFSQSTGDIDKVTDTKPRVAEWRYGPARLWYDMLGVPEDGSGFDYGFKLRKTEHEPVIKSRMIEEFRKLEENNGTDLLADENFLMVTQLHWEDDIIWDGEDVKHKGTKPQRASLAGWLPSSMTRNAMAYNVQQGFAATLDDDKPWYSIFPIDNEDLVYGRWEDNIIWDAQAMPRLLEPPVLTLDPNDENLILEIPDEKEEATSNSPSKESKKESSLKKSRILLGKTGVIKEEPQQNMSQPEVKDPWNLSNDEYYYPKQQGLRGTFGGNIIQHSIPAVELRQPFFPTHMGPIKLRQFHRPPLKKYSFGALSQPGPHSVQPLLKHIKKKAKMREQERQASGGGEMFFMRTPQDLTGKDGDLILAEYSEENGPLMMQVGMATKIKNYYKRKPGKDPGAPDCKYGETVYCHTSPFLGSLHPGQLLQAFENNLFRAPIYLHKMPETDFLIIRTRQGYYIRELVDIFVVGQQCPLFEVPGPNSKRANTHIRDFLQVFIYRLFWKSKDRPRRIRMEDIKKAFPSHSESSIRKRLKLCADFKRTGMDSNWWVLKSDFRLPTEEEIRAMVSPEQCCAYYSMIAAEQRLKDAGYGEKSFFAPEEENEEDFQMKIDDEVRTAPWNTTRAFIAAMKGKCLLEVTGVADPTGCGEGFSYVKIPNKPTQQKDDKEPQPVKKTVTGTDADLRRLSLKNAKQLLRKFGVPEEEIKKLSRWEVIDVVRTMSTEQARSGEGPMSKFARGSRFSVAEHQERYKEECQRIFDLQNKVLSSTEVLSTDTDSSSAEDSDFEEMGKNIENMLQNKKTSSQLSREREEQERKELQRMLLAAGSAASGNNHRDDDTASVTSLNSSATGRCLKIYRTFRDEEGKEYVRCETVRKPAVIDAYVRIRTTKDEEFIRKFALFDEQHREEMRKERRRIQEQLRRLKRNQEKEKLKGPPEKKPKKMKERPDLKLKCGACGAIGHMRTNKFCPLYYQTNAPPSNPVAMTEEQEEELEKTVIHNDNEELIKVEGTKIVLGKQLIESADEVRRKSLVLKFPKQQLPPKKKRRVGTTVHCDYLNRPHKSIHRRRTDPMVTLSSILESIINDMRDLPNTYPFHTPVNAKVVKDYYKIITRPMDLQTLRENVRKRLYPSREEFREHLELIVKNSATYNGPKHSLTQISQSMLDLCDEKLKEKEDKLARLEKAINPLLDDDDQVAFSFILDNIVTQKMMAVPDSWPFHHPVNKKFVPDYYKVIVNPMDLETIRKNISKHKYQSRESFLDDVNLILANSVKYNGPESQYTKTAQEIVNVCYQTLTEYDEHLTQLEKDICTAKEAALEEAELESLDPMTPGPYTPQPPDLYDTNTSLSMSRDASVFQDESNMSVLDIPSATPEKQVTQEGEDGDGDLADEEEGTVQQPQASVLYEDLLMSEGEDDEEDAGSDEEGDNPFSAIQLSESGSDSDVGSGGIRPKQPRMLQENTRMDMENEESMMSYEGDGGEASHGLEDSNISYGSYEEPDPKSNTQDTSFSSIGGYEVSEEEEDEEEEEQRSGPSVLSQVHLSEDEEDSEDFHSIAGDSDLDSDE
Serine/threonine-protein kinase pim-1 (Homo sapiens), sequence (P11309 whole entry, looked up): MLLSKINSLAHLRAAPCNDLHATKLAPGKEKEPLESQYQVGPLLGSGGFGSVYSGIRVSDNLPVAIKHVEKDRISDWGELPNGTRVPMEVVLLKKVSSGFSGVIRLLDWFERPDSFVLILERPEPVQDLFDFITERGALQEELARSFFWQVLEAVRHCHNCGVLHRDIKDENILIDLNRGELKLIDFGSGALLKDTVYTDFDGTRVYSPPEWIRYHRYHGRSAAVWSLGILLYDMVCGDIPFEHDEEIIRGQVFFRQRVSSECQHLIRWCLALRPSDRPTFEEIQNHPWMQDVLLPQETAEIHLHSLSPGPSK
Ribosomal protein S6 kinase alpha-5 (Homo sapiens), sequence (O75582 whole entry, looked up): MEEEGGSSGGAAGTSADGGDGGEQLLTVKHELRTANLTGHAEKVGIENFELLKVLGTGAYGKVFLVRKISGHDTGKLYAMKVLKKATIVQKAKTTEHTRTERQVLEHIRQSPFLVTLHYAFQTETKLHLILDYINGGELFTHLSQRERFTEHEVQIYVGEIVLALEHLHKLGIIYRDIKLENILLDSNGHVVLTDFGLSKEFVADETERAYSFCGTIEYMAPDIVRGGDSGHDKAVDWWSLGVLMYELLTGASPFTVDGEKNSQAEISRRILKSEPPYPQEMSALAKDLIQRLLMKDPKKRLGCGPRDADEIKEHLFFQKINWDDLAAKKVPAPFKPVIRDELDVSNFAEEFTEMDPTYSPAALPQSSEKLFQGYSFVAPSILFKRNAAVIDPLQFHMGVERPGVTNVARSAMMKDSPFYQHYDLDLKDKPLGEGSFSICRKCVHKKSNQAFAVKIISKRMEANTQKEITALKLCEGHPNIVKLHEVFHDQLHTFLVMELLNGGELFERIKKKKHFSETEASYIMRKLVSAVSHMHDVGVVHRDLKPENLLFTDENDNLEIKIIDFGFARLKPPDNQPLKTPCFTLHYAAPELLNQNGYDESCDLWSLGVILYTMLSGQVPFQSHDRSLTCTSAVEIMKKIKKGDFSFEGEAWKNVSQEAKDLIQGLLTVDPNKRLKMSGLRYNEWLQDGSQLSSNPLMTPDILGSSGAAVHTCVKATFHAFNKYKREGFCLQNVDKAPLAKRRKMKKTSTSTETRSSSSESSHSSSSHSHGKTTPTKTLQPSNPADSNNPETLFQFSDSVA

Row | delta Tm Staurosporine positive control [1] | ΔTm [1] | delta Tm Staurosporine positive control [2] | ΔTm [2] | inhibition [3] [%] | delta Tm Staurosporine positive control [4] | ΔTm [4] | inhibition [5] [%] | delta Tm Staurosporine positive control [6] | ΔTm [6] | delta Tm Staurosporine positive control [7] | ΔTm [7] | delta Tm Staurosporine positive control [8] | ΔTm [8] | delta Tm Staurosporine positive control [9] | ΔTm [9] | inhibition [10] [%] | inhibition [11] [%] | inhibition [12] [%] | delta Tm Staurosporine positive control [13] | SMILES | also measured
1 | 10 | -12.2 | 3.41 | -9.54 | 6.41 | 13.1 | -0.0945 | 4.84 | 11.9 | -0.391 | 11.6 | 0.0243 | 12.1 | 0.703 | 0.177 | -0.179 | 23 | 40.1 | 12.5 | 14.2 | C[C@H](NC(=O)c1cn(C2(C#N)CC2)cn1)C(=O)Nc1nc(-c2cccc(-c3ccn(C)n3)c2)cs1 | ΔTm [13]: 0; ΔTm [14]: -0.216; inhibition [15]: 16.3%; IC50 [16]: 2.37 µM (not active); delta Tm Staurosporine positive control [17]: 6.82; ΔTm [17]: 0.226; inhibition [18]: 8.54%; delta Tm Staurosporine positive control [19]: 7.66; ΔTm [19]: 0.443; inhibition [20]: -5.53%; delta Tm Staurosporine positive control [21]: 6.68; ΔTm [21]: 0.97
2 | 10 | -0.114 | 3.41 | 0.842 | 6.68 | 13.1 | 1.16 | 10.7 | 11.9 | -0.353 | 11.6 | -0.00871 | 12.1 | 0.242 | 0.177 | 0.0215 | 29.7 | 9.46 | 1.95 | 14.2 | COC[C@H](NC(=O)c1ccn(S(C)(=O)=O)c1)C(=O)Nc1nc(-c2cccc(-c3ccn(C)n3)c2)cs1 | ΔTm [13]: 0; ΔTm [14]: -0.638; inhibition [15]: 6.19%; IC50 [16]: 0.0302 µM (active); delta Tm Staurosporine positive control [17]: 6.82; ΔTm [17]: 0.544; inhibition [18]: 18.8%; delta Tm Staurosporine positive control [19]: 7.66; ΔTm [19]: -0.233; inhibition [20]: 4.18%; delta Tm Staurosporine positive control [21]: 6.68; ΔTm [21]: 0.168
